Reference: ChEMBL document CHEMBL5113368, “Meroterpenoids produced by fungi: Occurrence, structural diversity, biological activities, and their molecular targets” (Eur J Med Chem, 2021)
Blank lines part the entries; values can stand above or below the molecule they belong to.

Key:
Acetylcholinesterase [1] = target: T1, Acetylcholinesterase (Homo sapiens, UniProt P22303); experiment: Inhibition of human erythrocyte AChE using acetylthiocholine iodide as substrate incubated for 20 mins by DTNB reagent based spectrophotometric method
T1 sequence (P22303 whole entry): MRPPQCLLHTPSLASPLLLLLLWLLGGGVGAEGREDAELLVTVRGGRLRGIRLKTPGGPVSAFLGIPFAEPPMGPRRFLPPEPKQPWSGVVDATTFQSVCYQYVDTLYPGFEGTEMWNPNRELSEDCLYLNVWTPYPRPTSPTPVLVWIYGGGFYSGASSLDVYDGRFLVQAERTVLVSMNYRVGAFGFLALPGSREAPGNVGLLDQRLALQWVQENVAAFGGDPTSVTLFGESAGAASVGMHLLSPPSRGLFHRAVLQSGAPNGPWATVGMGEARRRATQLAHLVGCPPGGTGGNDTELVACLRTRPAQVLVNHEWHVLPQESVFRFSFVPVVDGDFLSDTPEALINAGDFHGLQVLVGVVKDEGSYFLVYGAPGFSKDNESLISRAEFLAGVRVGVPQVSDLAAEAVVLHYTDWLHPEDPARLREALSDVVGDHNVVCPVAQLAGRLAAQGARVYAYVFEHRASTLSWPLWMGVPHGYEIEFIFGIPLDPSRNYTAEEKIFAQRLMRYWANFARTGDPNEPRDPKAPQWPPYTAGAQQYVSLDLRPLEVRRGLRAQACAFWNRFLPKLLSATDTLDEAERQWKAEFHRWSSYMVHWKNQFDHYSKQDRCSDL

[2] = target: T2, Prostaglandin G/H synthase 2 (Homo sapiens, UniProt P35354); experiment: Inhibition of COX-2 (unknown origin) by fluorescent inhibitor screening assay
T2 sequence (P35354 whole entry): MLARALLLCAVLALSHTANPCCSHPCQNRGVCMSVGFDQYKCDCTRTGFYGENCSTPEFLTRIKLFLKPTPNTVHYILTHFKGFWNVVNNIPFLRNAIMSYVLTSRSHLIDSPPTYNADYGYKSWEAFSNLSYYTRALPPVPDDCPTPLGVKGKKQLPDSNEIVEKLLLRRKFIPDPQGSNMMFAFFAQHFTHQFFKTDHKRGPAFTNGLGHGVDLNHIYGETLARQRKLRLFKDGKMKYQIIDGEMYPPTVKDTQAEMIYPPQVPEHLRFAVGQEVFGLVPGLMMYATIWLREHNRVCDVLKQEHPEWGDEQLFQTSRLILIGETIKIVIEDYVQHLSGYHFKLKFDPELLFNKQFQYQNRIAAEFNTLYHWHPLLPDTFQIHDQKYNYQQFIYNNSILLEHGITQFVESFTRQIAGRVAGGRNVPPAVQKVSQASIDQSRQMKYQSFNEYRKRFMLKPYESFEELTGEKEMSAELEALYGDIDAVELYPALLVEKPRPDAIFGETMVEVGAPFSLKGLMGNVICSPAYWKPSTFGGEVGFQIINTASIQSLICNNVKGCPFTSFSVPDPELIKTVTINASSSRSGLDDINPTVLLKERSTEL

Staphylococcus aureus = experiment: Antibacterial activity against Staphylococcus aureus assessed as bacterial growth inhibition; assay type: functional, organism-based
K562 = experiment: Cytotoxicity against human K562 cells assessed as cell growth inhibition by CCK-8 method; assay type: functional, cell-based
[3] = target: T3, Tyrosine-protein kinase JAK3 (Homo sapiens, UniProt P52333); experiment: Inhibition of JAK3 (unknown origin) by FRET-based Z'-Lyte assay
T3 sequence (P52333 whole entry): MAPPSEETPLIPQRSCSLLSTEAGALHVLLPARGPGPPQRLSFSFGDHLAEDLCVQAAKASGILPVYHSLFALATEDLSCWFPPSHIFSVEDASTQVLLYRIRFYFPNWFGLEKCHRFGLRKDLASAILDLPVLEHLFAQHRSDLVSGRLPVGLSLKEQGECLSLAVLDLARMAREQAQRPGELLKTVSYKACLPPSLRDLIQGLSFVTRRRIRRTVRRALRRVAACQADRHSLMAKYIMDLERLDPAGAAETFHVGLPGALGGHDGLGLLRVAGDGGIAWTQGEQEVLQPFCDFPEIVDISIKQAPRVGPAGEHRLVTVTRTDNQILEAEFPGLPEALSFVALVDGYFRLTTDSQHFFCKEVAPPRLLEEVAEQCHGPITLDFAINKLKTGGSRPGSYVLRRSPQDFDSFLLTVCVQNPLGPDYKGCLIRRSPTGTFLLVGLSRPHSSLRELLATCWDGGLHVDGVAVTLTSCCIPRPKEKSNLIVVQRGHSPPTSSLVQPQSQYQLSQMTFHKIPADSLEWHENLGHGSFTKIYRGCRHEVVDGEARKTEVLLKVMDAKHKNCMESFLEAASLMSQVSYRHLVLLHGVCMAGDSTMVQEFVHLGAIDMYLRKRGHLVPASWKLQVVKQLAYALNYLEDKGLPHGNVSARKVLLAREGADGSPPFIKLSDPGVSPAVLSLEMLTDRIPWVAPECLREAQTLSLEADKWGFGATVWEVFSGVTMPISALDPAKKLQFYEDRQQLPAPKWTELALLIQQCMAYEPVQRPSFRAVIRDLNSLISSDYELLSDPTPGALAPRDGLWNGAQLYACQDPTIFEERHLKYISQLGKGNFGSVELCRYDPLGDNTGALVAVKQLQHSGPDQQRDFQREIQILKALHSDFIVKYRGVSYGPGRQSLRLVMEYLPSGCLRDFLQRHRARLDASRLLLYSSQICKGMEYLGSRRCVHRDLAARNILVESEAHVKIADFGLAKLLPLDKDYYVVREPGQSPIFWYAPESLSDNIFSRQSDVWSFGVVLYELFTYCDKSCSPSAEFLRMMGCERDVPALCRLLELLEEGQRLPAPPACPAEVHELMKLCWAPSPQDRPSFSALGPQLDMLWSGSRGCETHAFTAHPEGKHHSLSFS

[4] = target: T4, Pancreatic triacylglycerol lipase (Sus scrofa, UniProt P00591); experiment: Inhibition of porcine pancreatic lipase using p-Nitrophenyl butyrate substrate incubated for 15 mins by spectrophotometer analysis
T4 sequence (P00591 whole entry): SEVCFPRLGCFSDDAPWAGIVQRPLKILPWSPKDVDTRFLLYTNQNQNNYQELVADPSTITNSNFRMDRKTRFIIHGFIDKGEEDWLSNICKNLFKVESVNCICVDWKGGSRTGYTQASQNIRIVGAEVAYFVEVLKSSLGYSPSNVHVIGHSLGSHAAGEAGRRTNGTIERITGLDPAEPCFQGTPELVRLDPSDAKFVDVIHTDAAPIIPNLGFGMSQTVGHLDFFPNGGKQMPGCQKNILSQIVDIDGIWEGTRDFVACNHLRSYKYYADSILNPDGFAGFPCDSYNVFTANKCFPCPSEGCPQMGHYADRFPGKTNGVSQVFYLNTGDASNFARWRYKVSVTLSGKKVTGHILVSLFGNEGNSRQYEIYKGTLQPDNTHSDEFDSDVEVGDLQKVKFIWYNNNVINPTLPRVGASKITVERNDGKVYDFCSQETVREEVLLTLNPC

[5] = Inhibition of Saccharomyces cerevisiae alpha-glucosidase using p-nitrophenyl-alpha-D -glucopyranoside as substrate pre-incubated for 10 mins followed by substrate addition measured after 15 mins by absorbance based analysis
[6] = target: T5, Tyrosine-protein phosphatase non-receptor type 1 (Homo sapiens, UniProt P18031); experiment: Inhibition of PTP1B (unknown origin) using pNPP as substrate by spectrophotometer analysis
T5 sequence (P18031 whole entry): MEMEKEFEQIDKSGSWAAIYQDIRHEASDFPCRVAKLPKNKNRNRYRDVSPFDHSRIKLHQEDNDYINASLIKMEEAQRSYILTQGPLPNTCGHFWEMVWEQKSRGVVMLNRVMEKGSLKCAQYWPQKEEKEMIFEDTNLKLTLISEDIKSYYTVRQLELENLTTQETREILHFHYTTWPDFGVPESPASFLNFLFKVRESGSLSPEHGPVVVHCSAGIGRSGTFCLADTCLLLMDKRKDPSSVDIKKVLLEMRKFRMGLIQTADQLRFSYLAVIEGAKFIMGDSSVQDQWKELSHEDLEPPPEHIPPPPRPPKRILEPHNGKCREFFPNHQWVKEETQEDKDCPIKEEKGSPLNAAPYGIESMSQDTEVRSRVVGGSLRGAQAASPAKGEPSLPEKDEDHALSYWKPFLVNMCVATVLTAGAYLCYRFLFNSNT

[7] = target: T2, Prostaglandin G/H synthase 2; experiment: Inhibition of human recombinant COX-2 pretreated with compound for 10 mins followed by substrate addition for 10 mins by fluorescent inhibitor screening assay
RAW264.7 = experiment: Anti-inflammatory activity in mouse RAW264.7 cells assessed as inhibition of NO production; assay type: functional, cell-based
[8] = target: T2, Prostaglandin G/H synthase 2; experiment: Inhibition of COX-2 (unknown origin)
Acetylcholinesterase [9] = target: T1, Acetylcholinesterase; experiment: Inhibition of AChE (unknown origin)

Structure (SMILES): COC/C(C=O)=C\CCC1=CC(c2cc(O)ccc2O)OC1=O (configuration not stated)
- IC50 (Acetylcholinesterase [1]): 8.52 µM

- IC50 [2]: 4.84 µM
Structure (SMILES): C/C(=C\CC/C(C)=C/C/C=C(/CC(=O)c1cc(O)ccc1O)C(=O)O)CO

Structure (SMILES): C=C(C)C1CCC2(C(=O)OCC)CC13Oc1c(C/C=C(/CC/C=C(\C)CCC=C(C)C)C(=O)O)cc(O)cc1-c1c(O)ccc(c13)O2 (racemic)
- IC50 (Staphylococcus aureus): 5.43 µM

Structure (SMILES): C=C(C)C1CCC2(C(=O)OCC)CC13Oc1cc(C/C=C(/CC/C=C(\C)CCC=C(C)C)C(=O)O)c(O)cc1-c1c(O)ccc(c13)O2 (racemic)
- IC50 (K562): 6.68 µM
- IC50 (Staphylococcus aureus): 5.43 µM

- IC50 [3]: < 10 µM
Structure (SMILES): CO[C@H]1OC(=O)[C@@]2(CC(=O)c3cc(O)ccc3O)C[C@@H]3[C@@H](CCC4=C[C@H](c5cc(O)ccc5O)OC4=O)C(C=O)=CO[C@@H]3[C@@]12C (racemic)

- IC50 [4]: 2.5 µM
Structure (SMILES): CC(C)=CCC/C(C)=C/CCC1=C[C@]2(OC1=O)c1cc(O)ccc1OC(=O)[C@@]2(CC/C=C(\C)CCC=C(C)C)CC(=O)c1cc(O)ccc1O

- IC50 [5]: 39.2 µM
Structure (SMILES): C/C(=C\Cc1c(O)cc2c(c1O)CN(CCCC[C@@H](C(=O)O)N1Cc3c(cc(O)c(C/C=C(\C)CC/C=C(\C)C(=O)O)c3O)C1=O)C2=O)CC/C=C(\C)C(=O)O

- IC50 [6]: 62.5 µM
Structure (SMILES): CC(=O)O[C@@H]1c2c3c(cc(O)c2C(=O)O[C@@H]1C)O[C@@]1(C)[C@@H](O)C[C@H]2C(C)(C)[C@@H](O)C=C[C@]2(C)[C@@H]1C3

- IC50 [3]: < 10 µM
Structure (SMILES): CO[C@H]1OC(=O)[C@@]2(CC(=O)c3cc(O)ccc3O)C[C@@H]3[C@@H](CCC4=C[C@@H](c5cc(O)ccc5O)OC4=O)C(C=O)=CO[C@@H]3[C@@]12C (racemic)

- IC50 [7]: 1.29 µM
Structure (SMILES): CC(C)=CCC/C(C)=C/CCC1=C[C@]2(OC1=O)c1cc(O)ccc1OC(=O)[C@@]2(CCC=C(C)C)CC(=O)c1cc(O)ccc1O (racemic)

- IC50 (RAW264.7): 6.1 µM
Structure (SMILES): CC1(C)CCC[C@@]23C[C@@](CC(=O)c4cc(O)ccc4O)(CC[C@H]12)C(=O)O3

- IC50 [8]: 9.96 µM
Structure (SMILES): COC1(c2cc(O)ccc2O)C=C(CC[C@@H]2C(C)(C)[C@@H]3CC[C@]2(C)O3)C(=O)O1 (some centres not stated)

Structure (SMILES): CCOC1(c2cc(O)ccc2O)C=C(CC/C=C(\C)CCC=C(C)C)C(=O)O1 (configuration not stated)
- IC50 (Acetylcholinesterase [1]): 7.37 µM

- IC50 [8]: 25.5 µM
Structure (SMILES): O=C1C[C@]23CC[C@H](O)[C@]2(COC3=O)c2c(O)ccc(O)c21

- IC50 [7]: 1.29 µM
Structure (SMILES): CC(C)=CCCC1=C[C@]2(OC1=O)c1cc(O)ccc1OC(=O)[C@@]2(CC/C=C(\C)CCC=C(C)C)CC(=O)c1cc(O)ccc1O (racemic)

Structure (SMILES): CC(=O)O[C@@H]1C[C@@]2(C)Oc3cc(C)oc(=O)c3C[C@@H]2[C@@]2(C)C=CC(=O)C(C)(C)[C@H]12
- IC50 (Acetylcholinesterase [9]): 13.6 µM
